Measured values reported in patent publication US8236527B2, “Recombinant production of authentic human proteins using human cell expression systems” (Humanzyme Limited, priority 2008, dated 2012).
Counter-ions that a name gives are not always drawn. Like-named read-outs stand apart in the source and are kept apart here.

Experiments:
[1] = tested on: whole CD4+ cells from a healthy donor; assay: Th17 polarizing cytokines: IL-17 secretion from human CD4+ cells (ELISA); format: cell-based; conditions: for induction of IL-17 secretion: compared with cytokines from insect cell or bacterial expression system, 5 days; for Th17 cell polarization: separate study, same condition
Excerpt: IL-17-producing CD4+ T cells (Th-17 cells) have been identified as a unique subset of Th cells that develop along a pathway that is distinct from the Th1, and Th2-cell differentiation pathways. This finding has provided exciting new insights into immunoregulation, host defense and the pathogenesis of autoimmune diseases. Recently it has been shown that IL1β, IL6 and IL23 are important in driving human Th17 differentiation. However, TGF-β1, which is important for the differentiation of murine Th17 cells, is reported to be not required, and even inhibits human Th17 differentiation (McGeachy & Cua (2008) Immunity 28:445, Chen & O'Shea (2008) Cytokines 41:71). In this study, whole […] cells isolated from a healthy donor were stimulated with 10 μg/mL plate bound anti-CD3 and 10 μg/ml soluble anti-CD28 in the presence of Th17 polarizing cytokines from the inventive human cell expression system and from an insect cell or bacterial expression system. After 5 days supernatants were harvested for measurement of IL-17 by ELISA.

[2] = tested on: naïve T cell (Th0); assay: Differentiation of naive T cell (Th0) to Th17 cells, flow cytometry; format: cell-based; conditions: compared with human platelet derived native TGF-β1 (positive control)
Protocol: (§1) FIG. 22: Efficient differentiation of Th17 cells with authentic cytokines expressed in human cells. Whole CD4+ T cells isolated from a healthy donor were stimulated with 2 μg/mL plate bound anti-CD3 and 1 μg/mL soluble anti-CD28 in the presence of Th17 polarizing cytokines, including a titration of IL-23. After 5 days, supernatants were harvested for measurement of IL-17 by ELISA. See (A)-(G). FIG. 22 (H) depicts flow cytometry analysis on Human Th17 Differentiation by Authentic human TGF-β1. See Example 17 below.

[3] = biological target: p38α expressed in E. coli, Vendor B, in vitro activated by MKK6 (Homo sapiens, UniProt Q16539); assay: Kinase inhibitor IC50 determination with E. coli p38α (Vendor B, E coli-II); format: biochemical
Sequence of p38α expressed in E. coli, Vendor B, in vitro activated by MKK6 (Q16539 whole entry): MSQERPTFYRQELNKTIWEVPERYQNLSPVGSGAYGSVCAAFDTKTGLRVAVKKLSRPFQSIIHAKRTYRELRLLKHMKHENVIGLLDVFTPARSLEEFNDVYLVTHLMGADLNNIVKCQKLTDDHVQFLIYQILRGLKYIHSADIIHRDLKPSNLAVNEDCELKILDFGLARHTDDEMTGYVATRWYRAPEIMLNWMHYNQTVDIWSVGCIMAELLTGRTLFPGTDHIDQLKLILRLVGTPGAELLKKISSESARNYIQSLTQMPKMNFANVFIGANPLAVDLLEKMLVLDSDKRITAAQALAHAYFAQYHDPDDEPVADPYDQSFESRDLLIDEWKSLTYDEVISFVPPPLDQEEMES

[4] = biological target: p38α expressed in E. coli, Vendor A, in vitro activated by MKK6 (Homo sapiens, UniProt Q16539); assay: Kinase inhibitor IC50 determination with E. coli p38α (Vendor A, E coli-I); format: biochemical
Sequence of p38α expressed in E. coli, Vendor A, in vitro activated by MKK6 (Q16539 whole entry): as above

[5] = biological target: p38α produced and activated in human cells (Homo sapiens, UniProt Q16539); assay: Kinase inhibitor IC50 determination with p38α produced in human cells; format: biochemical; conditions: read-out: IC50, Human Cell
Sequence of p38α produced and activated in human cells (Q16539 whole entry): as above

[6] = tested on: human TF-1 cells; assay: IL-4 bioactivity: dose-dependent stimulation of proliferation of TF-1 cells; format: cell-based; conditions: TF-1 cell proliferation
[7] = Km.ATP of p38α preparations; format: biochemical
[8] = tested on: human umbilical vein endothelial cells; assay: VEGF165 bioactivity: proliferation of human umbilical vein endothelial cells; format: cell-based; conditions: HUVEC proliferation
[9] = tested on: human CD4+ T cells; assay: IL-23 activity: IL-17 secretion from human CD4+ T cells (ELISA); format: cell-based; conditions: human CD4+ cells, 5 days
Protocol: (A) IL-23 activities determined by the dose-dependent secretion of IL-17 from mouse splenocytes activated with 10 ng/ml PMA. (B) IL-23 activities determined by the dose-dependent secretion of IL-17 from human CD4+ T cells stimulated with […] plate bound anti-CD3 and […] soluble anti-CD28 in the presence of Th17 polarizing cytokines.
as §1
IL-17-producing CD4+ T cells (Th17 cells) have been identified as a unique subset of T helper cells that develop along a pathway that is distinct from the Th1 and Th2-cell differentiation pathways. This finding has provided exciting new insights into immunoregulation, host defense and the pathogenesis of autoimmune diseases. Recently it has been shown that TGF-β1, […], IL-6 and IL-23 are important in driving human Th17 differentiation (Chen & O'Shea (2008) Cytokines 41:71). […] The activities were further assayed with human CD4+ cells which were isolated from a healthy donor and stimulated with 10 μg/ml plate bound anti-CD3 and 10 μg/ml soluble anti-CD28 in the presence of Th17 polarizing cytokines. After 5 days supernatants were harvested for measurement of IL-17 by ELISA.

[10] = tested on: human embryonic stem (hES) cells; assay: Oct3/4 expression in Noggin-treated human embryonic stem cells (Western blot); format: cell-based; conditions: 10 pg/ml and 20 pg/ml treatment
[11] = p38α from E. coli, Vendor B, read-out: IC50, E coli-II
[12] = p38α from E. coli, Vendor A, read-out: IC50, E coli-I

In the case of “authentic human TGF-β1: TGF-β1 from engineered human 293 cells, disulfide-linked dimer of 25 kD”, the “induction of IL-17 secretion” value [1] is reported as “effective in enhancing the effect”, the Th17 cell polarization [1] is reported as “can effectively induce Th17 cell polarization” and the “differentiation of Th0 to Th17 cells (IL-17 and INF-γ producing cells)” value [2] is reported as “matched human platelet derived native TGF-β1”.

With Nc1ncnc2c1ncn2[C@@H]1O[C@H](COP(=O)(O)OP(=O)(O)NP(=O)(O)O)[C@@H](O)[C@H]1O [AMP-PNP] the IC50 [3, 11] was over 2000 µM, the “fold less sensitive than human cell p38α” value ([4]; Vendor A preparation vs p38α from human cells) was 7 fold and the IC50 [4, 12] was 1810 µM. It also gave an IC50 ([5]; p38α produced in human cells) of 257 µM.

CCCCCCOC(=O)[C@]1(O)C[C@@H]2O[C@@]1(C)n1c3ccccc3c3c4c(c5c6ccccc6n2c5c31)C(=O)NC4 [KT5720] gave an IC50 [3, 11] of over 10 µM, an IC50 [4, 12] of over 10 µM and an IC50 ([5]; p38α produced in human cells) of 5 µM.

With “IL6: recombinantly-produced, authentic human IL6; SEQ ID NO: 16” the “induction of IL-17 secretion” value [1] was “significantly more effective”.

Work on NCCNS(=O)(=O)c1cccc2cnccc12 [H-9 dihydrochloride] yielded an IC50 [3, 11] of over 10 µM, an IC50 [4, 12] of over 10 µM and an IC50 ([5]; p38α produced in human cells) of over 10 µM.

In the case of CN(C)CCCn1cc(C2=C(c3c[nH]c4ccccc34)C(=O)NC2=O)c2ccccc21 [GF 109203X], the IC50 [3, 11] is reported as over 10 µM, the IC50 [4, 12] is reported as over 10 µM and the IC50 [5] is reported as over 10 µM.

Molecule Nc1ncnc2c1c(I)cn2[C@@H]1O[C@H](CO)[C@@H](O)[C@H]1O [5-iodotubercidin] has an IC50 ([3]; read-out: IC50, E coli-II) of over 10 µM, an IC50 ([4]; read-out: IC50, E coli-I) of over 10 µM and an IC50 [5] of over 10 µM.

In the case of Cn1cc(C2=C(c3cn(CCCSC(=N)N)c4ccccc34)C(=O)NC2=O)c2ccccc21 [Ro 31-8220], the IC50 [3, 11] is reported as over 10 µM, the IC50 [4, 12] is reported as over 10 µM and the IC50 ([5]; p38α produced in human cells) is reported as 9.9 µM.

With “TGF-β1 from insect cells: TGF-β1 cytokine from insect cells used as comparator” the “induction of IL-17 secretion” value [1] was “marginal effect”.

For “IL4: IL4 from human cells, glycosylated major band of 19 kD; SEQ ID NO: 22”, the “fold higher potency than the E. coli expressed cytokine” value [6] was 4 fold.

With “authentic p38α: recombinantly-produced, authentic human p38a produced and activated in human cells in the presence of arsenite” the Km [7] was 109 ± 12 µM.

For “IL1β: recombinantly-produced, authentic human IL1β from the human cell expression system”, the “induction of IL-17 secretion” value [1] was “significantly more effective”.

O=S(=O)(NCCNC/C=C/c1ccc(Br)cc1)c1cccc2cnccc12 [H89 Dihydrochloride] showed an IC50 [3, 11] of over 10 µM, an IC50 [4, 12] of over 10 µM and an IC50 ([5]; p38α produced in human cells) of over 10 µM.

CC(=O)c1c(O)c(C)c(O)c(Cc2c(O)c3c(c(C(=O)/C=C/c4ccccc4)c2O)OC(C)(C)C=C3)c1O [Rottlerin] showed an IC50 [3] of over 200 µM, an IC50 [4] of over 200 µM and an IC50 [5] of over 200 µM.

Work on COC(=O)[C@@]1(O)C[C@H]2O[C@]1(C)n1c3ccccc3c3c4c(c5c6ccccc6n2c5c31)C(=O)NC4 [K252a] yielded an IC50 [3] of over 10 µM, an IC50 [4] of over 10 µM and an IC50 [5] of 0.005 µM.

“Vendor preparation: p38α from Vendor A, expressed and purified from E. coli, in vitro activated by MKK6” showed a Km [7] of 212 ± 26 µM.

Work on “Vendor B enzyme: p38α from Vendor B, expressed and purified from E. coli, in vitro activated by MKK6” yielded a Km [7] of 120 µM.

CN(C)C[C@H]1CCn2c(c(C3=C(c4cn(C)c5ccccc45)C(=O)NC3=O)c3ccccc32)C1 [Ro 32-0432] showed an IC50 [3, 11] of over 10 µM, an IC50 [4, 12] of over 10 µM and an IC50 ([5]; p38α produced in human cells) of over 10 µM.

B1: authentic human VEGF165: VEGF165 from engineered human 293 cells, glycosylated homodimer of 45 kD; SEQ ID NO: 2 (protein)
chain: APMAEGGGQNHHEVVKFMDVYQRSYCHPIETLVDIFQEYPDEIEYIFKPSCVPLMRCGGCCNDEGLECVPTEESNITMQIMRIKPHQGQHIGEMSFLQHNKCECRPKKDRARQENPCGPCSERRKHLFVQDPQTCKCSCKNTDSRCKARQLELNERTCRCDKPRR
modifications: glycosylated homodimer
For B1, the “fold more active than the E. coli expressed protein” value [8] was 10 fold and the “fold more active than the E. coli expressed protein” value ([8]; listed as VEGF165) was 6 fold.

B2: TGF-β2: TGF-β2 from engineered human 293 cells, disulfide-linked dimer of 25 kD (protein, UniProt P61812 303-414, looked up)
Transforming growth factor …: ALDAAYCFRNVQDNCCLRPLYIDFKRDLGWKWIHEPKGYNANFCAGACPYLWSSDTQHSRVLSLYNTINPEASASPCCVSQDLEPLTILYYIGKTPKIEQLSNMIVKSCKCS
For B2, the Th17 cell polarization [1] was “can effectively induce Th17 cell polarization”.

B3: TGF-β3: TGF-β3 from engineered human 293 cells, disulfide-linked dimer of 25 kD (protein, UniProt P10600 301-412, looked up)
Transforming growth factor …: ALDTNYCFRNLEENCCVRPLYIDFRQDLGWKWVHEPKGYYANFCSGPCPYLRSADTTHSTVLGLYNTLNPEASASPCCVPQDLEPLTILYYVGRTPKVEQLSNMVVKSCKCS
With B3 the Th17 cell polarization [1] was “can effectively induce Th17 cell polarization”.

B4: insect cell-produced IL-23: commercially available recombinant IL-23 from an insect cell expression system (protein, UniProt Q9NPF7 20-189; P29460 23-328, looked up)
Interleukin-23 subunit alpha: RAVPGGSSPAWTQCQQLSQKLCTLAWSAHPLVGHMDLREEGDEETTNDVPHIQCGDGCDPQGLRDNSQFCLQRIHQGLIFYEKLLGSDIFTGEPSLLPDSPVGQLHASLLGLSQLLQPEGHHWETQQIPSLSPSQPWQRLLLRFKILRSLQAFVAVAARVFAHGAATLSP
Interleukin-12 subunit beta: IWELKKDVYVVELDWYPDAPGEMVVLTCDTPEEDGITWTLDQSSEVLGSGKTLTIQVKEFGDAGQYTCHKGGEVLSHSLLLLHKKEDGIWSTDILKDQKEPKNKTFLRCEAKNYSGRFTCWWLTTISTDLTFSVKSSRGSSDPQGVTCGAATLSAERVRGDNKEYEYSVECQEDSACPAAEESLPIEVMVDAVHKLKYENYTSSFFIRDIIKPDPPKNLQLKPLKNSRQVEVSWEYPDTWSTPHSYFSLTFCVQVQGKSKREKKDRVFTDKTSATVICRKNASISVRAQDRYYSSSWSEWASVPCS
In the case of B4, the “concentration at which maximum induction of IL-17 secretion was achieved” value [9] is reported as 10 ng/mL.

B5: authentic human Noggin: Noggin from human 293 cell expression system, glycosylated, disulfide-linked dimer; SEQ ID NO: 24 (protein)
chain: QHYLHIRPAPSDNLPLVDLIEHPDPIFDPKEKDLNETLLRSLLGGHYDPGFMATSPPEDRPGGGGGAAGGAEDLAELDQLLRQRPSGAMPSEIKGLEFSEGLAQGKKQRLSKKLRRKLQMWLWSQTFCPVLYAWNDLGSRFWPRYVKVGSCFSKRSCSVPEGMVCKPSKSVHLTVLRWRCQRRGGQRCGWIPIQYPIISECKCSC
modifications: glycosylated disulfide-linked homodimer
In the case of B5, the “Oct3/4 expression (marker for undifferentiated hES cells)” value [10] is reported as “consistently expressed Oct3/4” and the “Oct3/4 expression (marker for undifferentiated hES cells)” value ([10]; listed as authentic human homodimer Noggin) is reported as “expresses so effectively and consistently Oct3/4”.
